Measured values published in PMC6388407 (Toxicological sciences : an official journal of the Society …, 2018).
Like-named read-outs stand apart in the source and are kept apart here.

Legend:
Cellular ATP level assay = assay type: cell-based, mouse; settings: mouse, L5178Y mouse lymphoma cells
[1] = tested on: thymidine kinase (Tk) gene of the L5178Y/Tk+/− −3.7.2C mouse lymphoma cell line; assay: Mouse lymphoma assay; assay type: cell-based; settings: for BMDL10, MLA without S9: lower limit of the 10% BMD, Hill model of PROAST, MF data; for Ranking, MLA without S9: potency ranking by BMDL10, 1 = most potent
[2] = tested on: L5178Y mouse lymphoma cells; assay: Alkaline Comet assay; assay type: cell-based; settings: for lowest concentration that induced significant DNA damage / highest percentage of DNA in tail: 4-h treatment; for lowest concentration that induced significant DNA damage: absence of S9; for highest percentage of DNA in tail: absence of S9, background approximately 5%; for BMDL10, Comet assay: lower limit of the 10% BMD, Hill model of PROAST, %DNA in tail data, without S9
[3] = CellTiter-Blue cell viability assay; assay type: cell-based, mouse; settings: mouse, L5178Y mouse lymphoma cells
[4] = MTS cell proliferation assay; assay type: cell-based, mouse; settings: mouse
[5] = tested on: L5178Y mouse lymphoma cells; assay: MTS cell proliferation assay; assay type: cell-based; settings: 4-h treatment; for reduction in cell viability, MTS assay: at the lowest concentrations tested; for IC20: read-out: IC20, MTS assay, L5178Y cells
[6] = tested on: Tk mutants of L5178Y mouse lymphoma cells; assay: LOH evaluation of Tk mutants from the MLA; assay type: cell-based; settings: with vs without S9, p < .05
Chinese hamster cells = settings: ref Mitchell et al., 1991, cited from earlier work
[7] = tested on: thymidine kinase (Tk) gene of the L5178Y/Tk+/− −3.7.2C mouse lymphoma cell line; assay: Mouse lymphoma assay; assay type: cell-based; settings: for BMDL10, MLA with S9: lower limit of the 10% BMD, Hill model of PROAST, MF data; for Ranking, MLA with S9: potency ranking by BMDL10, 1 = most potent
[8] = tested on: Chinese hamster ovary AS52 cells; settings: CHO AS52 cells; ref DeGraff et al., 1992; cited from earlier work
[9] = tested on: L5178Y mouse lymphoma cells; assay: Cellular ATP level assay; assay type: cell-based; settings: read-out: IC20, ATP assay; L5178Y cells, 4-h treatment
[10] = tested on: L5178Y mouse lymphoma cells; assay: CellTiter-Blue cell viability assay; assay type: cell-based; settings: read-out: IC20, Blue assay; L5178Y cells, 4-h treatment
[11] = tested on: thymidine kinase (Tk) gene of the L5178Y/Tk+/− −3.7.2C mouse lymphoma cell line; settings: ref Guo et al., 2013, cited from earlier work
[12] = tested on: thymidine kinase (Tk) gene of the L5178Y/Tk+/− −3.7.2C mouse lymphoma cell line; settings: with S9, at concentration that produced 10%–20% RTG; ref Guo et al., 2013; cited from earlier work
[13] = tested on: TK6 human lymphoblastoid cells; settings: ref Guo et al., 2013; cited from earlier work
[14] = absence of S9, at the cytotoxicity limit for the MLA
[15] = without S9, at concentration that produced 10%–20% RTG

CC1(C)CC(O)CC(C)(C)N1[O] [4-hydroxy-TEMPO]
IC20 at 4 h (Cellular ATP level assay): 6390 µM | BMDL10, MLA without S9 [1]: 1.300 | Ranking, MLA without S9 [1]: 4 | lowest concentration that induced significant DNA damage [2]: 4 mM | highest percentage of DNA in tail [2]: 21% | BMDL10, Comet assay [2]: 1.612 | IC20 at 4 h [3]: 1780 µM | IC20 at 4 h [4]: 356 µM | reduction in cell viability, MTS assay [5]: approximately 50% | effect of metabolic activation on mutational spectra (LOH) [6]: significantly altered | radiation protection factor (Chinese hamster cells; 10 mM for 10 min prior to X-irradiation): 1.3 | radiation protection factor (Chinese hamster cells; 100 mM for 10 min prior to X-irradiation): 2.5 | BMDL10, MLA with S9 [7]: 1.024 | Ranking, MLA with S9 [7]: 4 | mutagenicity and toxicity [8]: not mutagenic or toxic

COC1CC(C)(C)N([O])C(C)(C)C1 [4-methoxy-TEMPO]
IC20 [9]: 3870 µM | mutant frequency (MF) [1, 14]: 537 × 10^−6 | BMDL10, MLA without S9 [1]: 0.756 | Ranking, MLA without S9 [1]: 2 | mutant frequency (MF) [1, 15]: 508 per million cells | lowest concentration that induced significant DNA damage [2]: 6 mM | highest percentage of DNA in tail [2]: 13% | BMDL10, Comet assay [2]: 3.358 | IC20 [10]: 2580 µM | reduction in cell viability, MTS assay [5]: approximately 50% | IC20 [5]: 30 µM | BMDL10, MLA with S9 [7]: 0.770 | Ranking, MLA with S9 [7]: 3 | mutant frequency (MF) ([7]; with S9, at concentration that produced 10%–20% RTG): 961 per million cells

CC1(C)CC(=O)CC(C)(C)N1[O] [4-oxo-TEMPO]
IC20 [9]: 1730 µM | mutant frequency (MF) [1, 14]: 584 × 10^−6 | BMDL10, MLA without S9 [1]: 0.661 | Ranking, MLA without S9 [1]: 1 | lowest concentration that induced significant DNA damage [2]: 3 mM | highest percentage of DNA in tail [2]: 14% | BMDL10, Comet assay [2]: 1.114 | IC20 [10]: 1950 µM | IC20 [5]: 1550 µM | BMDL10, MLA with S9 [7]: 0.058 | Ranking, MLA with S9 [7]: 1

CC1(C)CCCC(C)(C)N1[O] [TEMPO, 2,2,6,6-tetramethylphiperidine-1-oxyl]
IC20 [9]: 1920 µM | BMDL10, MLA without S9 [1]: 0.981 | Ranking, MLA without S9 [1]: 3 | lowest concentration that induced significant DNA damage [2]: 2 mM | highest percentage of DNA in tail [2]: 28% | BMDL10, Comet assay [2]: 0.454 | IC20 [10]: 4970 µM | reduction in cell viability, MTS assay [5]: approximately 50% | IC20 [5]: 11 µM | effect of metabolic activation on mutational spectra (LOH) [6]: significantly altered | BMDL10, MLA with S9 [7]: 0.257 | Ranking, MLA with S9 [7]: 2 | mutant frequency (MF) [11, 14]: 208 × 10^−6 | MLA result ([11]; earlier study, with and without 1% S9): mutagenic | mutant frequency (MF) [11, 15]: 208 per million cells | mutant frequency (MF) [12]: 502 per million cells | micronucleus induction [13]: induced micronuclei
